The test system of experiment [1] is antibodies in sera of individuals which have been and/or are infected by SARS-CoV (SARS-green, SARS-yellow, 1a, 1b, 2, 6, 37, 62, London). In kind it is binding, human.
Experiment [2] concerns antibodies in rabbit serum obtained by immunizing a rabbit with the SARS-CoV strain Frankfurt 1. Type of experiment: binding.

We go through 56 sequences from patent US20060110803A1 (Crucell Holland B.V., priority 2003, published 2006).

With ALGKLQDVVNQNAQA [SEQ ID NO:954], in experiment [1], the “recognition by sera of SARS-CoV infected individuals, looped/cyclic form” value (“recognition by sera … looped/cyclic form” below) is recorded as “recognized in looped/cyclic form”. In addition, in experiment [2], the “recognition by rabbit serum” value was “recognized by the rabbit serum”. As to CDNPFFAVSKPMGTQ [SEQ ID NO:172], the “recognition by rabbit serum” value in experiment [2] is “recognized by the rabbit serum”.

For the sequence CTTFDDVQAPNYTQH [SEQ ID NO:58], in experiment [2], the “recognition by rabbit serum” value is “recognized by the rabbit serum”. The same measure, in the same setting: as for DDVQAPNYTQHTSSM [SEQ ID NO:62], the entry is “recognized by the rabbit serum”; as for DFTDSVRDPKTSEIL [SEQ ID NO:585], “recognized by the rabbit serum”. The same measure, in the same setting: in the case of DNPFFAVSKPMGTQT [SEQ ID NO:173] it was “recognized by the rabbit serum”.

In the case of DRCTTFDDVQAPNYT [SEQ ID NO:56], in experiment [2], the “recognition by rabbit serum” value is “recognized by the rabbit serum”. Same read-out and setting: as for DSVRDPKTSEILDIS [SEQ ID NO:588], the entry is “recognized by the rabbit serum”; as for DVQAPNYTQHTSSMR [SEQ ID NO:63], “recognized by the rabbit serum”; as for FDDVQAPNYTQHTSS [SEQ ID NO:61], “recognized by the rabbit serum”. Same read-out and setting: in the case of FMLKYDENGTITDAV [SEQ ID NO:290] it was “recognized by the rabbit serum”. With FTDSVRDPKTSEILD [SEQ ID NO:586], the “recognition by rabbit serum” value in experiment [2] was “recognized by the rabbit serum”. Still for that read-out and setting: as for GIGYQPYRVVVLSFE [SEQ ID NO:516], the entry is “recognized by the rabbit serum”. For the sequence GKLQDVVNQNAQALN [SEQ ID NO:956], the “recognition by sera … looped/cyclic form” value in experiment [1] was “recognized in looped/cyclic form”. The “recognition by rabbit serum” value in experiment [2] is given as “recognized by the rabbit serum”. Take GYQPYRVVVLSFELL [SEQ ID NO:518]: the “recognition by rabbit serum” value in experiment [2] is listed as “recognized by the rabbit serum”. As for IGYQPYRVVVLSFEL [SEQ ID NO:517], in experiment [2], the “recognition by rabbit serum” value is given as “recognized by the rabbit serum”.

As to KLQDVVNQNAQALNT [SEQ ID NO:957], the “recognition by sera … looped/cyclic form” value in experiment [1] is reported as “recognized in looped/cyclic form”. In addition, in experiment [2], the “recognition by rabbit serum” value is “recognized by the rabbit serum”. Take KYDENGTITDAVDCS [SEQ ID NO:293]: the “recognition by rabbit serum” value in experiment [2] is reported as “recognized by the rabbit serum”. LDRCTTFDDVQAPNY [SEQ ID NO:55]: the “recognition by rabbit serum” value in experiment [2] is on record as “recognized by the rabbit serum”.

As to LGKLQDVVNQNAQAL [SEQ ID NO:955], in experiment [1], the “recognition by sera … looped/cyclic form” value is recorded as “recognized in looped/cyclic form”. In experiment [2], the “recognition by rabbit serum” value is given as “recognized by the rabbit serum”. As for LKYDENGTITDAVDC [SEQ ID NO:292], in experiment [2], the “recognition by rabbit serum” value is listed as “recognized by the rabbit serum”. In the case of MLKYDENGTITDAVD [SEQ ID NO:291], the “recognition by rabbit serum” value in experiment [2] is “recognized by the rabbit serum”. On the same count and under the same terms, as for NPFFAVSKPMGTQTH [SEQ ID NO:174], the entry is “recognized by the rabbit serum”; as for PTTFMLKYDENGTIT [SEQ ID NO:287], “recognized by the rabbit serum”; as for QAPNYTQHTSSMRGV [SEQ ID NO:65], “recognized by the rabbit serum”. The same measure, in the same setting: in the case of RCTTFDDVQAPNYTQ [SEQ ID NO:57] it was “recognized by the rabbit serum”; in that of SDFTDSVRDPKTSEI [SEQ ID NO:584], “recognized by the rabbit serum”. The same measure, in the same setting: as for STALGKLQDVVNQNA [SEQ ID NO:952], the entry is “recognized by the rabbit serum”. For TALGKLQDVVNQNAQ [SEQ ID NO:953], the “recognition by rabbit serum” value in experiment [2] is recorded as “recognized by the rabbit serum”. Same read-out and setting: as for TDSVRDPKTSEILDI [SEQ ID NO:587], the entry is “recognized by the rabbit serum”; as for TFDDVQAPNYTQHTS [SEQ ID NO:60], “recognized by the rabbit serum”; as for TFMLKYDENGTITDA [SEQ ID NO:289], “recognized by the rabbit serum”. Regarding TSSMRGVYYPDEIFR [SEQ ID NO:73], the “recognition by sera … looped/cyclic form” value in experiment [1] was “recognized in looped/cyclic form”.

TSTALGKLQDVVNQN [SEQ ID NO:951]: the “recognition by rabbit serum” value in experiment [2] is reported as “recognized by the rabbit serum”.

For TSVDCNMYICGDSTE [SEQ ID NO:744], in experiment [1], the “recognition by sera of SARS-CoV infected individuals, linear form” value (from here on “recognition by sera … linear form”) is “recognized in linear form”. With TTEVMPVSMAKTSVD [SEQ ID NO:733], the “recognition by sera … looped/cyclic form” value in experiment [1] is “recognized in looped/cyclic form”. Take TTFDDVQAPNYTQHT [SEQ ID NO:59]: in experiment [2], the “recognition by rabbit serum” value is “recognized by the rabbit serum”. Still for that read-out and setting: in the case of TTFMLKYDENGTITD [SEQ ID NO:288] it was “recognized by the rabbit serum”. In the case of TTTSTALGKLQDVVN [SEQ ID NO:949], the “recognition by sera … looped/cyclic form” value in experiment [1] is given as “recognized in looped/cyclic form”. In the case of TVYDPLQPELDSFKE [SEQ ID NO:1134], the “recognition by sera … looped/cyclic form” value in experiment [1] is reported as “recognized in looped/cyclic form”. Still for that read-out and setting: as for VAKNLNESLIDLQEL [SEQ ID NO:1185], the entry is “recognized in looped/cyclic form”.

For VDCNMYICGDSTECA [SEQ ID NO:746], the “recognition by sera … linear form” value in experiment [1] is “recognized in linear form”. As for VNQNAQALNTLVKQL [SEQ ID NO:962], in experiment [1], the “recognition by sera … looped/cyclic form” value is recorded as “recognized in looped/cyclic form”. With VPFSPDGKPCTPPAL [SEQ ID NO:486], in experiment [1], the “recognition by sera … linear form” value is “recognized in linear form”. Turning to VQAPNYTQHTSSMRG [SEQ ID NO:64], the “recognition by rabbit serum” value in experiment [2] was “recognized by the rabbit serum”. VSGTATAGWTFGAGA [SEQ ID NO:888]: the “recognition by sera … linear form” value in experiment [1] is on record as “recognized in linear form”. Take VVNQNAQALNTLVKQ [SEQ ID NO:961]: in experiment [1], the “recognition by sera … looped/cyclic form” value was “recognized in looped/cyclic form”. Still for that read-out and setting: in the case of VWLGFIAGLIAIVMV [SEQ ID NO:1212] it was “recognized in looped/cyclic form”; in that of VYDPLQPELDSFKEE [SEQ ID NO:1135], “recognized in looped/cyclic form”; in that of VYYPDEIFRSDTLYL [SEQ ID NO:79], “recognized in looped/cyclic form”.

On to WLGFIAGLIAIVMVT [SEQ ID NO:1213], for which, in experiment [1], the “recognition by sera … looped/cyclic form” value is “recognized in looped/cyclic form”.

Consider WYVWLGFIAGLIAIV [SEQ ID NO:1210], for which the “recognition by sera … looped/cyclic form” value in experiment [1] is “recognized in looped/cyclic form”. Still for that read-out and setting: as for YDPLQPELDSFKEEL [SEQ ID NO:1136], the entry is “recognized in looped/cyclic form”; as for YFKNHTSPDVDLGDI [SEQ ID NO:1151], “recognized in looped/cyclic form”. On to YICGDSTECANLLLQ [SEQ ID NO:751], for which, in experiment [1], the “recognition by sera … linear form” value is given as “recognized in linear form”. Turning to YVWLGFIAGLIAIVM [SEQ ID NO:1211], the “recognition by sera … looped/cyclic form” value in experiment [1] is “recognized in looped/cyclic form”.
